From patent US20260294839A1, “COMPOSITION AND METHOD OF MAKING” (priority 2023, published 2026)
Where two headings read alike, the source gives them in different places.

Tests used:
[1] = tested on: consortium of C. albicans and A. brasiliensis; assay: ISO 11930 preservative effectiveness, fungal consortium; assay type: cell-based; settings: for log reduction at 5 % / log reduction at 15 % / log reduction at 50 % / Nx: diluted in aqueous solution; for log reduction at 5 % / log reduction at 15 % / log reduction at 50 %: read-out: Rx (log reduction)
Procedure: (§1) The ISO 11930 industry standard test was to used measure the effectiveness of the compound to act as a preservative (growth inhibition) for up to 28 days (as tested). Preservative action is used to prevent spoilage and contamination of food, cosmetics, and drugs. First, compositions of the invention were diluted in Glycerol (Tables 7 to 8).
(§2) Next, compositions of the invention were diluted in aqueous solution.
Also according to ISO 11930, compositions of the invention produced a log reduction of >3.27 logs at a concentration of 50.0% v/v, 15.0% v/v, and 5.0% v/v as tested after 7 days, 14 days and 28 days at 25° C. against a consortium of Candida albicans ATCC 10231 and Aspergillus brasiliensis ATCC 16404 (Table 10). […]

Staphylococcus aureus = assay: Non-peroxide activity (NPA) plate assay with catalase; assay type: cell-based; settings: duplicate or triplicate mean; invention sample 1 fresh, 2-5 stored 234 days (37° C., room temperature, fridge, freezer)
Procedure: In this test, the enzyme catalase was added to the sample to rapidly break down hydrogen peroxide to water and oxygen. […] The test was carried out using a Gram-positive bacteria, Staphylococcus aureus. The result is a value in % w/v relative to phenol standards. Two honey samples and several control samples consisting of glycerol with additional components were tested alongside the composition of the invention samples and the results are shown in Table 4. Samples were run in duplicate or triplicate and the mean result calculated.
[…] of the composition of the invention were tested: • Sample 1: a freshly made sample • Sample 2: stored for 234 days in a 37° C. incubator • Sample 3: stored for 234 days at room temperature • Sample 4: stored for 234 days in a fridge • Sample 5: stored for 234 days in a freezer
The NPA assay was used, as previously in Example 3.

[2] = tested on: consortium of S. aureus, E. coli and P. aeruginosa; assay: ISO 11930 preservative effectiveness, bacterial consortium; assay type: cell-based; settings: for log reduction at 50 % v/v: 50.0% v/v aqueous; for log reduction at 5 % / log reduction at 15 % / log reduction at 50 % / Nx: diluted in aqueous solution; for log reduction at 5 % / log reduction at 15 % / log reduction at 50 %: read-out: Rx (log reduction)
Procedure: as §1, §2
According to ISO 11930, compositions of the invention produced a log reduction of >4.14 logs at a concentration of 50.0% v/v, 15.0% v/v, and 5.0% v/v as tested after 7 days, 14 days and 28 days at 25° C. against a consortium of Staphylococcus aureus ATCC 6538, Escherichia coli NCTC 10536 and Pseudomonas aeruginosa ATCC 15442 (Table 9). […]

[3] = if it accumulates excessively at the wound site; cited from earlier work
[4] = ISO 11930, aqueous solution, 25° C.

For `OCC(O)CO` [Glycerol, glycerol], the log reduction ([1]; 50.0%, 15.0%, 5.0% v/v, 7, 14 and 28 days, 25° C.) was “did not produce a measurable log reduction”, the log reduction at 5 % ([1]; 168 h, 5% (V/V), day 7) was < 1.65 and the log reduction at 15 % ([1]; 168 h, 15% (V/V), day 7) was < 1.65. For the same molecule, the log reduction at 50 % ([1]; 168 h, 50% (V/V), day 7) was < 1.65, the log reduction at 5 % ([1]; 336 h, 5% (V/V), day 14) was < 1.65 and the log reduction at 15 % ([1]; 336 h, 15% (V/V), day 14) was < 1.65. The log reduction at 50 % ([1]; 336 h, 50% (V/V), day 14) was < 1.65, the log reduction at 5 % ([1]; 672 h, 5% (V/V), day 28) was < 1.65 and the log reduction at 15 % ([1]; 672 h, 15% (V/V), day 28) was < 1.65. The log reduction at 50 % ([1]; 672 h, 50% (V/V), day 28) was < 1.65, the “Preservation Criteria A for fungi” value [1, 4] was “does not conform to Preservation Criteria A for fungi” and the Nx ([1]; 5% (V/V), day 0) was >3.30E+03. For the same molecule, the Nx ([1]; 5% (V/V), day 7) was >3.30E+03, the Nx ([1]; 5% (V/V), day 14) was >3.30E+03 and the Nx ([1]; 5% (V/V), day 28) was >3.30E+03. The Nx ([1]; 15% (V/V), day 0) was >3.30E+03, the Nx ([1]; 15% (V/V), day 7) was >3.30E+03 and the Nx ([1]; 15% (V/V), day 14) was >3.30E+03. The Nx ([1]; 15% (V/V), day 28) was >3.30E+03, the Nx ([1]; 50% (V/V), day 0) was >3.30E+03 and the Nx ([1]; 50% (V/V), day 7) was >3.30E+03. The Nx ([1]; 50% (V/V), day 14) was >3.30E+03, the Nx ([1]; 50% (V/V), day 28) was >3.30E+03 and the “level at which it is a preservative, fungi” value ([1]; not tested, shows a fail at 50.0%) was > 60.0%. For the same molecule, the “NPA, Mean Result” value (Staphylococcus aureus) was <9.5 % w/v phenol equivalent, the “level at which it is a preservative, bacteria” value [2] was > 50.0 % V/V and the log reduction at 50 % v/v ([2]; 14 days and 28 days, 25° C.) was > 4.21. For the same molecule, the log reduction at 50 % v/v ([2]; 168 h, 7 days, 25° C.) was 3.67, the log reduction at 5 % ([2]; 168 h, 5% (V/V), day 7) was < 2.84 and the log reduction at 15 % ([2]; 168 h, 15% (V/V), day 7) was < 2.84. For the same molecule, the log reduction at 50 % ([2]; 168 h, 50% (V/V), day 7) was 3.67, the log reduction at 5 % ([2]; 336 h, 5% (V/V), day 14) was < 2.84 and the log reduction at 15 % ([2]; 336 h, 15% (V/V), day 14) was 3.28. The log reduction at 50 % ([2]; 336 h, 50% (V/V), day 14) was > 4.21, the log reduction at 5 % ([2]; 672 h, 5% (V/V), day 28) was < 2.84 and the log reduction at 15 % ([2]; 672 h, 15% (V/V), day 28) was > 4.21. The log reduction at 50 % ([2]; 672 h, 50% (V/V), day 28) was > 4.21, the “Preservation Criteria A for bacteria” value [2, 4] was “conforms to Preservation Criteria A for bacteria” and the Nx ([2]; 5% (V/V), day 0) was >3.30E+03. The Nx ([2]; 5% (V/V), day 7) was >3.30E+03, the Nx ([2]; 5% (V/V), day 14) was >3.30E+03 and the Nx ([2]; 5% (V/V), day 28) was >3.30E+03. The Nx ([2]; 15% (V/V), day 0) was >3.30E+03, the Nx ([2]; 15% (V/V), day 7) was >3.30E+03 and the Nx ([2]; 15% (V/V), day 14) was 1.20E+03. The Nx ([2]; 15% (V/V), day 28) was <1.40E+02, the Nx ([2]; 50% (V/V), day 0) was >3.30E+03 and the Nx ([2]; 50% (V/V), day 7) was 4.95E+02. The Nx ([2]; 50% (V/V), day 14) was <1.40E+02 and the Nx ([2]; 50% (V/V), day 28) was <1.40E+02.

In the case of `[Ag]` [Silver, silver], the “effect on wound healing” value [3] is listed as “inhibit healing”.
